PubChem BioAssay (NCI)
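Grown in 96-well plates, cells were treated for 48 hours with each compound at five concentrations. Insufficient inhibition: endpoint recorded as highest concentration tested. TGI: concentration producing complete growth inhibition.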

Legend:
Test in all cases: NCI-60 cell line screen, 48 h
DMS 273 small cell lung = system: DMS 273 small cell lung
KM20L2 colon = system: KM20L2 colon
BT-549 breast = system: BT-549 breast
SNB-75 CNS = system: SNB-75 CNS
MDA-MB-435 = system: MDA-MB-435

`CCCOC(=O)CCC(NC(=O)c1ccc(Nc2nc3ccccc3nc2-c2cccs2)cc1)C(=O)OCCC` (stereo not given) was tested, and the TGI (DMS 273 small cell lung) was over 100 µM and the TGI (KM20L2 colon) was over 100 µM.

`CN(C)CCCn1c(-c2ccc(Br)cc2)csc1=Nc1ccccc1` was tested, and the TGI (BT-549 breast) was 31.6 µM, the TGI (SNB-75 CNS) was 29.8 µM and the TGI (MDA-MB-435) was 61.5 µM.
